Several values for one entry are separate records, joined by “and”; a condition that tells them apart may be missing. Identical values can stand only once. Counter-ions that a name gives are not always drawn. Like-named read-outs stand apart in the source and are kept apart here.
Legend:
[1] = tested on: Male ICR adult mice; type: in vivo, mouse; details: mouse, in vivo
[2] = target: α4β2 nAChR (Rattus norvegicus (Rat), UniProt P09483+P12390); assay: Inhibition of [3H]epibatidine binding at the α4β2 nAChR in male rat cerebral cortex; details: αβ [3H]Epibatidine (Ki, nM)
Sequence of α4β2 nAChR (P09483 31-630 limits assumed): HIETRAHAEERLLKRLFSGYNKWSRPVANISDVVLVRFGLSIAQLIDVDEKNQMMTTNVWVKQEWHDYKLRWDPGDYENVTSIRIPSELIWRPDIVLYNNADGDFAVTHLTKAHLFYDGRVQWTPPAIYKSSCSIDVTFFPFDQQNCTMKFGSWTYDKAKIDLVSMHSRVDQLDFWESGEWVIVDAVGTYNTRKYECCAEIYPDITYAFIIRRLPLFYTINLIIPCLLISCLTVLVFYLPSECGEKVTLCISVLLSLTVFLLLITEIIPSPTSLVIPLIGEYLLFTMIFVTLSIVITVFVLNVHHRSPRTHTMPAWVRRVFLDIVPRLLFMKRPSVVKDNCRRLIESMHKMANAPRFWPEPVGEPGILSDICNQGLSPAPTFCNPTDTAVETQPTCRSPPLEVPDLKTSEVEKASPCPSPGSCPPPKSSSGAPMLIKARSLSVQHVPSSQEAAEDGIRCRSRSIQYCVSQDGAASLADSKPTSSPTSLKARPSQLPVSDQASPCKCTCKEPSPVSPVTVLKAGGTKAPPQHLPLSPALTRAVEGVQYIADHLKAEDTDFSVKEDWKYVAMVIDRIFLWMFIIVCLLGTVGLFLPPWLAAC
Sequence of α4β2 nAChR (P12390 25-500 limits assumed): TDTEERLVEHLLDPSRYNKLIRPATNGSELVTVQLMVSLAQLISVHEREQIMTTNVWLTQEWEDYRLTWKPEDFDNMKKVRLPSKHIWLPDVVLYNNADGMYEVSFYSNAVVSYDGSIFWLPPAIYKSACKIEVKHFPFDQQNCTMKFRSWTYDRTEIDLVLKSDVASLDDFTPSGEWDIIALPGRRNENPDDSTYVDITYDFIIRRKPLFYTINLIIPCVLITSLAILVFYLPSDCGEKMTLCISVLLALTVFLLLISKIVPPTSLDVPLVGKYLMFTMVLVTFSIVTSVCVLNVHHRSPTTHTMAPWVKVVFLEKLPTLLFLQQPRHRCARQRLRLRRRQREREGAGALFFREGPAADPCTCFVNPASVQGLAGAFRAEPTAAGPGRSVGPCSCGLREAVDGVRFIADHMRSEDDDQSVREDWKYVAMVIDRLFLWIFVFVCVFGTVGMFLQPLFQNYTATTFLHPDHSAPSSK

[3] = tested on: mice; assay: Hypothermia (rectal temperature); type: in vivo, mouse; details: @ 10 mg/kg, sc
Protocol: (§1) Interruptions of the photocell beams (two banks of eight cells each) were then recorded for the next 10 min. Data were expressed as number of photocell interruptions. Rectal temperature was measured by a thermistor probe (inserted 24 mm) and digital thermometer (Yellow Springs Instrument Co., Yellow Springs, Ohio). […] The difference in rectal temperature before and after treatment was calculated for each mouse. The ambient temperature of the laboratory varied from 21 to 24° C. from day to day.

[4] = tested on: mice; assay: Spontaneous activity (photocell activity cages); type: in vivo, mouse; details: sc
Protocol: as §1

[5] = tested on: Male Sprague-Dawley rats; type: in vivo, rat; details: for Nicotine-like discriminative stimulus effects: compound alone (FIG. 3); for Shift of discriminative stimulus dose-effect curve of small dose of nicotine: small training dose of nicotine
Protocol: A drug discrimination assay was performed to measure the relevant effects of nicotine as it influences tobacco use and abuse. In a drug discrimination assay, food restricted rates are trained to make one response (select one of two nose-poke apertures in the test chamber) following administration of a particular drug, and a different response (select the other aperture) following administration of saline. The appropriate response is followed by delivery of food, and there is no cue as to which aperture will result in food delivery other than the presence or absence of the drug. Once trained, the animals respond on the “drug-associated” aperture following drug administration and on the “saline-associated” aperture following saline administration. In addition, administration of drug doses that are smaller than the training dose produce intermediate responses on the drug-associated aperture such that monotonically increasing dose-response curves can be generated in drug discrimination assays.
Male Sprague-Dawley rats were obtained from Harlan, Inc (Indianapolis, Ind.) and singly housed in polycarbonate cages with water continuously available. All rats weighed approximately 280-290 gms at the start of the experiment. A food-restricted diet of Purina rodent food allowed the animals to grow but maintain motivation to respond to earn food pellets. A 12 hr light-dark cycle turned the lights on at 7:00 am. Standard operant conditioning chambers (ENV-008, Med-Associates, St Albans, Vt.) were used for establishing and evaluating the nicotine discrimination. Each chamber contains two nose-poke devices with apertures containing yellow LED lights on either side of a dipper capable of delivering 50 μl of fluid into a third opening.
Initially, each rat was trained to insert its nose into one of the apertures and received vanilla-flavored Ensure as a consequence. During discrimination training, rats designated in the small dose group were injected with either saline or 0.32 mg/kg of nicotine. Ten consecutive responses on the appropriate lever (one side following saline administration; the other side following nicotine administration) was followed by presentation of the Ensure for 10 s, followed by a 10 s timeout. Selection of the incorrect lever, and completion of the 10 consecutive responses in this lever results in a 10 s timeout. Criteria for learning the discrimination are 1) responding on the first FR of the session is completed on the injection appropriate aperture; 2) >85% of the total session responses are made on the injection-appropriate aperture.
Each session was divided into several components of 25 min duration. Following an injection, the first five minutes of each component were black out, and the stimulus lights were illuminated for the remaining 20 min, during which injection-appropriate responses were reinforced.
One to four components comprised daily sessions Animals were injected with saline or nicotine prior to the start of the session, or following one or more of the […] components. Possible injection conditions were (S=saline, N=nicotine) S—S—S—S; N; S—N; S—S—N; S—S—S—N. Nicotine administration is always given in the final component if it is given at all.
If a potential antagonist was given, it was administered prior to the session at a time determined by earlier studies to be sufficient for peak effects to be established. The session components then comprised increasing doses of nicotine, each given before consecutive blackout periods. No more than two antagonist sessions were given each week, and once each month a nicotine dose-response curve was determined to assure no changes in sensitivity to nicotine. Full generalization to the nicotine discriminative cue is defined by >85% responding on the drug-associated aperture and completing at least one FR.
A second, large-nicotine trained group of rats were treated in an identical manner except that their training dose of nicotine is 1.78 mg/kg. […]

[6] = tested on: Male Sprague-Dawley rats; details: for Blockade of nicotine's hypertensive effects: given prior to 1.78 mg/kg nicotine, RTI-154 10 mg/kg, DHβE 5.6 mg/kg
Protocol: Male Sprague-Dawley rats (approximately 300 g) were obtained from Harlan, Inc. (Indianapolis, Ind.) and group-housed upon arrival. Food and water were freely available for all rats at all times. Housing and experimental rooms were maintained on a 12 h light/dark cycle with lights on at 7:00 AM with an average temperature of 21° C.
Surgical Procedures. To measure changes in heart rate and mean arterial pressure, rats were implanted with telemetric transmitters (TA11PAC40 or TL11M2-C50-PXT, Data Sciences International, Transoma Medical Inc., St. Paul, Minn., USA) under ketamine (90 mg/kg, i.p.) and xylazine (10 mg/kg, i.p.) anesthesia. An incision is made in the skin approximately 1 in to the left or right of the spine and over the left or right thigh to expose the femoral artery. The transmitter is placed into the incision on the dorsal side and into a subcutaneous pocket (made by separating the connective tissue between the skin and muscle) on the side of the abdomen. This positioning prevents the rats from manipulating the incision site and gaining access to the transmitter. The catheter extending from the base of the transmitter is threaded subcutaneously, placed 3 cm into the femoral artery, and secured with suture. Incisions were closed with 5.0 Ethicon nylon monofilament suture. Following surgery, rats were singly-housed and monitored for at least 7 days for signs of recovery (normal eating, drinking, and defecating patterns) prior to experimentation. All rats continued to have free access to food and water at all times.
Telemetry System. The system consists of battery-operated transmitters surgically implanted (described above), Physiotel® receivers, the DSI Data Exchange Matrix, and the Dataquest A.R.T. system, which collects and stores digital data from the receiver onto a computer (Data Sciences International, Transoma Medical Inc., St. Paul, Minn., USA). Blood pressure and heart rate data were analyzed by the Dataquest A.R.T. Gold Analysis 3.01 software.
At the start of an experiment, rats' home cages were placed on top of the receivers, and baseline data was collected for at least 1 h to allow heart rate and blood pressure to return to resting levels. All rats were given a saline injection to ensure that they are habituated to the injection and handling procedure on the test day. After heart rate and blood pressure returned to resting levels again, rats were injected with a treatment, consisting either of a single drug dose or a pretreatment drug administered 15 min prior to a test drug. Data was collected for at least 2 h following the last injection. All injections were administered subcutaneously (s.c.) in a volume of 1 ml/kg.
Each rat was used to evaluate multiple experimental conditions, such that each rat may receive as many as 4-6 different treatments, one per week with at least 6 days between drug exposures. […] Once the rats weigh approximately 450 g (body weight at time of transmitter implant: 300-350 g), the rat is no longer used for experiments, and the transmitter is removed.
Data were collected throughout baseline, before, and after drug treatments. The analysis program calculated an average heart rate and mean arterial pressure (MAP) every 10 sec. These 10 secepochs are then averaged over 1 min per rat, and data from at least 6 rats were averaged for each treatment group.

[7] = tested on: mice; assay: Antagonism of nicotine antinociception, hot-plate; type: in vivo, mouse; details: for Antagonism Hot-Plate, % at dose: before nicotine 2.5 mg/kg sc; for AD50 Hot-Plate: mice pretreated sc 10 min before nicotine 2.5 mg/kg sc
Protocol: (§2) In the tail-flick method of D'Amour and Smith, (D'Amour, F. E.; Smith, D. L. J. Pharmacol. Exp. Ther. 1941, 72, 74-79), the tail is exposed to a heat lamp and the amount of time taken for the animal to move (flick) its tail away from the heat is recorded. […] Mice were placed into a 10-cm wide glass cylinder on a hot plate (Thermojust Apparatus) maintained at 55.0° C. Two control latencies at least 10 min apart were determined for each mouse. […] The reaction time was scored when the animal jumped or licked its paws. The mice were tested 5 min after subcutaneous (sc) injections of nicotinic ligands for the dose-response determination. Antinociceptive response was calculated as percentage of maximum possible effect (% MPE, where % MPE=[(test−control)/(maximum latency−control)×100]).
(§3) Nicotine was administered at a dose of 2.5 mg/kg, sc (an ED84 dose), and mice were tested 5 min later. ED50 and AD50 values with 95% confidence limits were determined.

[8] = tested on: mice; assay: Tail-flick test (antinociception); type: in vivo, mouse; details: @ 10 mg/kg, sc
Protocol: as §2

[9] = tested on: mice; assay: Hot-plate test (antinociception); type: in vivo, mouse; details: @ 10 mg/kg, sc
Protocol: as §2

[10] = tested on: mice; assay: Antagonism of nicotine antinociception, tail-flick; type: in vivo, mouse; details: mice pretreated sc 10 min before nicotine 2.5 mg/kg sc
Protocol: as §2, §3

[11] = listed as (±)-154, hydrochloride

## CS(=O)(=O)c1ccc(-c2cc(C3CC4CCC3N4)cnc2F)cc1 (stereo not drawn) [RTI-7527-154, 2-(5-(4-Methanesulphonyl-phenyl)-6-fluoro-pyridin-3-yl)-7-aza-bicyclo[2.2.1]heptane hydrochloride]
[1]
  Blockade of development of nicotine-induced CPP: totally blocked
  Preference or aversion induced by compound itself in CPP: did not induce significant preference or aversion
[2]
  Ki: 0.17 nM and 0.08 nM
[3]; [11]
  Hypothermia, % effect at dose: 1% @ 10 and 1.2% @ 10
[4]; @ 5 mg/kg
  Spontaneous Activity, % effect at dose: 0% @ 5;
[5]
  Effect on rate-decreasing effects of nicotine: did not, however, alter the potency of nicotine
  Nicotine-like discriminative stimulus effects: no efficacy
[5]; compound alone
  Effect on rates of responding: did not suppress ongoing rates of responding
[6]; rats
  Blockade of nicotine's hypertensive effects: did not block
[6]; rats, s.c., compound alone
  Cardiovascular effects (heart rate and mean arterial pressure): no cardiovascular effects
[7]; @ 5000 μg/kg
  Antagonism Hot-Plate, % at dose: 40% @
[7]
  AD50 Hot-Plate: 2.6 mg/kg
[8]; [11]
  Tail-Flick, % effect at dose: 6% @ 10 and 5% @ 10

## N#Cc1ccc(-c2cc(C3CC4CCC3N4)cnc2F)cc1 (stereo not drawn) [RTI-7527-155, 2-(5-(4-Cyano-phenyl)-6-fluoro-pyridin-3-yl)-7-aza-bicyclo[2.2.1]heptane hydrochloride]
[2]
  Ki: 0.19 ± 0.012 nM
[9]
  Hot-Plate, % effect at dose: 18% @ 10
[3]
  Hypothermia, % effect at dose: 0% @ 10
[10]
  AD50 Tail-Flick: 0.006 mg/kg
[4]; @ 10 mg/kg
  Spontaneous Activity, % effect at dose: 0% @ 10
[7]; @ 10000 μg/kg
  Antagonism Hot-Plate, % at dose: 24% @
[8]
  Tail-Flick, % effect at dose: 4% @ 10

## CN1CCCC1c1cccnc1 (stereo not drawn) [nicotine]
[6]; rat, in vivo, sc
  Effect on blood pressure: substantial increases in blood pressure

## Clc1ccc(C2CC3CCC2N3)cn1 (single isomer, unassigned; (-)) [(−)-epibatidine, epibatidine]
[5]
  Nicotine-like discriminative stimulus effects: extremely potent full nicotine-like agonist
[6]; rats, s.c., compound alone
  Effect on blood pressure: substantial increases in blood pressure

## CO[C@H]1CC=C2CCN3CCC4=C(CC(=O)OC4)[C@]23C1 [DHβE, dihydro-beta-erythroidine]
[5]
  Effect on rate-decreasing effects of nicotine: did not antagonize
  Shift of discriminative stimulus dose-effect curve of small dose of nicotine: parallel rightward shifts
[5]; training dose of nicotine 1.78 mg/kg
  Shift of large dose-nicotine dose-response curve: much less robust rightward shifts
[6]; rats
  Blockade of nicotine's hypertensive effects: did not block
[6]; rats, s.c., compound alone
  Cardiovascular effects (heart rate and mean arterial pressure): no cardiovascular effects
  Effect on blood pressure: no changes in blood pressure

## Fc1ncc(C2CC3CCC2N3)cc1-c1ccc(C(F)(F)F)cc1 (stereo not drawn) [RTI-7527-153, 2-(5-(4-Trifluoromethane-phenyl)-6-fluoro-pyridin-3-yl)-7-aza-bicyclo[2.2.1]heptane hydrochloride]
[2]
  Ki: 0.44 ± 0.05 nM
[9]
  Hot-Plate, % effect at dose: 6% @ 10
[3]
  Hypothermia, % effect at dose: 0% @ 10
[10]
  AD50 Tail-Flick: 0.038 mg/kg
[4]; @ 10 mg/kg
  Spontaneous Activity, % effect at dose: 5% @ 10
[7]
  AD50 Hot-Plate: 6 mg/kg
[8]
  Tail-Flick, % effect at dose: 4% @ 10

## CNC1(C)C2CCC(C2)C1(C)C (stereo not drawn) [Mecamylamine, mecamylamine]
[5]
  Effect on rate-decreasing effects of nicotine: parallel rightward shift
  Shift of discriminative stimulus dose-effect curve of small dose of nicotine: rightward and downward shift

## α-conotoxin AUIB
[1]
  Blockade of development of nicotine reward in the CPP test: blocked the development of nicotine reward

Source: US9150581B2, “Nicotinic receptor compounds” (priority 2011, dated 2015)
